# Experimental data: patent publication US6723726B1 (SmithKline Beecham Corporation, priority 1996, dated 2004)
# Structures can show the parent of a compound that is named as a salt. Where two headings read alike, the source gives them in different places.
# How the values were obtained:
# Calu3 cells = experiment: Cell proliferation assay, Calu3 lung tumour cell line; type: cell-based, human; conditions: Homo sapiens, Calu-3, 96 h, read-out: Cell Proliferation Calu3 IC50
# Protocol: (§1) The cell proliferation assay uses an immortalised human breast epithelial cell line (HB4a) which has been transformed by over-expression of c-erbB-2. Growth of these cells in low serum is dependent upon the c-erbB-2 tyrosine kinase activity. The specificity of the effect of the test compounds on tyrosine kinase dependent growth over general toxicity is assessed by comparison to an HB4a cell line which has been transfected with ras. Cells are plated at 3000/well in 96-well plates in 0.1 ml medium and allowed to attach overnight, test compound is added in 0.1 ml medium, with a final concentration of 0.5% DMSO, and the plates incubated for 4 days at 37° C. The cells are then examined microscopically for evidence of morphological detransformation and cell mass is estimated by staining with methylene blue and measuring the absorbance at 620 nm. The results are shown in Table 1 below as the IC50 values in nM. Activity against a range of naturally occurring EGFr or c-erbB-2 over-expressing human tumour cell lines (BT474-breast, HN5-head and neck, N87-gastric and Calu3-lung) is assessed with selected compounds by the same methodology. The results are also shown in Table 1 below as the IC50 values in nM.
# HN5 cells = experiment: Cell proliferation assay, HN5 head and neck tumour cell line; type: cell-based; conditions: Homo sapiens, HN5, 96 h, read-out: Cell Proliferation HN5 IC50
# Protocol: as §1
# HB4a ras cells = experiment: Cell proliferation assay, HB4a transfected with ras (general toxicity comparison); type: cell-based, human; conditions: read-out: Cell Proliferation HB4a ras IC50
# Protocol: as §1
# [1] = target: T1, c-erbB-2 (baculovirus expressed recombinant intracellular domain) (Homo sapiens, UniProt P04626); experiment: Substrate phosphorylation assay, c-erbB-2; type: biochemical; conditions: ATP and peptide at Km, 30 min, room temperature
# T1 construct: baculovirus expressed, recombinant constructs of the intracellular domains of c-erbB-2 and c-erbB-4 that are constitutively active; made in house
# T1 sequence (P04626 676-1255 limits assumed): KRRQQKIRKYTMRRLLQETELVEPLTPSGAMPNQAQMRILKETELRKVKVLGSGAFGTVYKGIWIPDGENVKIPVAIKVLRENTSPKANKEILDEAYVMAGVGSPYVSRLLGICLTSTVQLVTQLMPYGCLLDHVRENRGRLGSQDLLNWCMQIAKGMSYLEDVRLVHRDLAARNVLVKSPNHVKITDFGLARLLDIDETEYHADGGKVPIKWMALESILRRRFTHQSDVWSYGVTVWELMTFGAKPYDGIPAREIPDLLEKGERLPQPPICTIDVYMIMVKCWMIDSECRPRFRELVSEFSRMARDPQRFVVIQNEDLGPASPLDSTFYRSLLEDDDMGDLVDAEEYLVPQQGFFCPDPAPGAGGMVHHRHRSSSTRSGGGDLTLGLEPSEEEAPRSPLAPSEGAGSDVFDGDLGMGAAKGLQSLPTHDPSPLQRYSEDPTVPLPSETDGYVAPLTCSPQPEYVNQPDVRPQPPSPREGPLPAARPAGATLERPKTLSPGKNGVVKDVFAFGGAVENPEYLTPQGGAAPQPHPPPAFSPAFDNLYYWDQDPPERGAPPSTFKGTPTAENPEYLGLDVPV
# Protocol: (§2) The substrate phosphorylation assays use baculovirus expressed, recombinant constructs of the intracellular domains of c-erbB-2 and c-erbB-4 that are constitutively active and EGFr isolated from solubilised A431 cell membranes. The method measures the ability of the isolated enzymes to catalyse the transfer of the γ-phosphate from ATP onto tyrosine residues in a biotinylated synthetic peptide (Biotin-[…]. […] The reaction is stopped by the addition of EDTA (final concentration 0.15 mM) and a sample is transferred to a streptavidin-coated 96-well plate. The plate is washed and level of phosphotyrosine on the peptide is determined using a Europium-labelled antiphosphotyrosine antibody and quantified with a time-resolved fluorescence technique.
# BT474 cells = experiment: Cell proliferation assay, BT474 breast tumour cell line; type: cell-based, human; conditions: read-out: Cell Proliferation BT474 IC50
# Protocol: as §1
# [2] = target: T2, c-erbB-4 (baculovirus expressed recombinant intracellular domain) (Homo sapiens, UniProt Q15303); experiment: Substrate phosphorylation assay, c-erbB-4; type: biochemical; conditions: ATP and peptide at Km, 30 min, room temperature
# T2 construct: baculovirus expressed, recombinant constructs of the intracellular domains of c-erbB-2 and c-erbB-4 that are constitutively active; made in house
# T2 sequence (Q15303 676-1308 limits assumed): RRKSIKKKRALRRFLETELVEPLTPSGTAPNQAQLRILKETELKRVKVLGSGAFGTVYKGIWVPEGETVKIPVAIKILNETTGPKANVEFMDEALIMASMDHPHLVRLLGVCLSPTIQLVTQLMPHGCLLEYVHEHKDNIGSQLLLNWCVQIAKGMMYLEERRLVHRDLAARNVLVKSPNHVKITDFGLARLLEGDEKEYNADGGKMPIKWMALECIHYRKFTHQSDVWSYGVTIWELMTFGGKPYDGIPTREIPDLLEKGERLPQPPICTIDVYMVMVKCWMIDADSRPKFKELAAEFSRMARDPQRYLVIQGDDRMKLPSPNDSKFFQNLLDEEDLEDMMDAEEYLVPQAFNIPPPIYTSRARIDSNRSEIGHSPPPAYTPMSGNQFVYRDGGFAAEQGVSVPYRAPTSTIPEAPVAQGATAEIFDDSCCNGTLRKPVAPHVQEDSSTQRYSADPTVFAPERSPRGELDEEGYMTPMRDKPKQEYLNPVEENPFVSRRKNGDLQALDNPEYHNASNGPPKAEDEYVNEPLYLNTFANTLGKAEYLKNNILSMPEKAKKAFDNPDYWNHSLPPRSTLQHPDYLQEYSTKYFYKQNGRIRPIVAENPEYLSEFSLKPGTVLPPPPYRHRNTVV
# Protocol: as §2
# HB4a erbB-2 cells = experiment: Cell proliferation assay, HB4a transformed by over-expression of c-erbB-2; type: cell-based, human; conditions: read-out: Cell Proliferation HB4a erbB-2 IC50
# Protocol: as §1
# N87 cells = experiment: Cell proliferation assay, N87 gastric tumour cell line; type: cell-based, human; conditions: read-out: Cell Proliferation N87 IC50
# Protocol: as §1
# [3] = target: T3, EGFr isolated from solubilised A431 cell membranes (Homo sapiens, UniProt P00533); experiment: Substrate phosphorylation assay, EGFr; type: biochemical; conditions: ATP and peptide at Km, 30 min, room temperature
# T3 construct: EGFr isolated from solubilised A431 cell membranes; endogenous in cells; host or cells: A431 cell membranes (solubilised)
# T3 sequence (P00533 25-1210): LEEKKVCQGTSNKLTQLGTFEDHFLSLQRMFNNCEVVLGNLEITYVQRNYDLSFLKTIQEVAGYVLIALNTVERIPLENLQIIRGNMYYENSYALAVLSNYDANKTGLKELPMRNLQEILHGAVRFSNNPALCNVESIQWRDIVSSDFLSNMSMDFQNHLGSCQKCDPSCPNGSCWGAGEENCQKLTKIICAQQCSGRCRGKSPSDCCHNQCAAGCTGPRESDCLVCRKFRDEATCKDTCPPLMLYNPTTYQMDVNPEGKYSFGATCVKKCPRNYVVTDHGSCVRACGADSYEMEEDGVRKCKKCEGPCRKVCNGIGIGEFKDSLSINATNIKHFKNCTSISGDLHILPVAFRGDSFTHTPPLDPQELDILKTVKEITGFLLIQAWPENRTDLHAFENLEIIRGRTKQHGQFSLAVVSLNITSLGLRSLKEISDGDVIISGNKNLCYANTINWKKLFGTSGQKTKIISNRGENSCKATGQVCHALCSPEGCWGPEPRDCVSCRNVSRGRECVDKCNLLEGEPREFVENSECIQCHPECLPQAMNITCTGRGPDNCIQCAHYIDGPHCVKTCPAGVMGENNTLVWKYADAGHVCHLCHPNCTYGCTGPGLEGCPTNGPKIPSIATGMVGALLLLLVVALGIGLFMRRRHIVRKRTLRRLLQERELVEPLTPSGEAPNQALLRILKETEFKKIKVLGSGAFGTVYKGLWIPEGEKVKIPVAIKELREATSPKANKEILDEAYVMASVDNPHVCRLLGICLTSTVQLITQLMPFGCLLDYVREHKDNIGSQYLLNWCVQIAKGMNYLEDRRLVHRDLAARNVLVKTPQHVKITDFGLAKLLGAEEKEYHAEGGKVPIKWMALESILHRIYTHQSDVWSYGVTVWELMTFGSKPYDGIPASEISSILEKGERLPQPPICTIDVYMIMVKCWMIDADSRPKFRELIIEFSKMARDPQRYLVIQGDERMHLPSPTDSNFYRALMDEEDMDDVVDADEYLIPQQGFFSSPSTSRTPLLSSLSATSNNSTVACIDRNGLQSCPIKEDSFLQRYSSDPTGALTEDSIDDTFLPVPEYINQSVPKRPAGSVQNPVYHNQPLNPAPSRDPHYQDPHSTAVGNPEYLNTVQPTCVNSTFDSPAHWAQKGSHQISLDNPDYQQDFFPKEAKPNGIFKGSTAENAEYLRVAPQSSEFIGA
# Protocol: as §2
# [4] = 4 days, methylene blue staining
# [5] = Homo sapiens, HB4a, 96 h, 4 days, methylene blue staining
# [6] = Homo sapiens, BT-474, 96 h, 4 days, methylene blue staining
# [7] = Homo sapiens, 96 h, 4 days, methylene blue staining
Compound,IC50 (Calu3 cells) [nM],IC50 (HN5 cells) [nM],IC50 [1] [nM],"IC50 (BT474 cells; Homo sapiens, BT-474, 96 h) [nM]",IC50 [2] [nM],"IC50 (N87 cells; Homo sapiens, 96 h) [nM]",IC50 (Calu3 cells; [4]) [nM],IC50 (BT474 cells; [6]) [nM],IC50 (HN5 cells; [4]) [nM],IC50 (N87 cells; [7]) [nM],IC50 [3] [nM],IC50 (BT474 cells; [4]) [nM],IC50 (N87 cells; [4]) [nM],"IC50 (HB4a ras cells; Homo sapiens, HB4a, 96 h) [nM]","IC50 (HB4a erbB-2 cells; Homo sapiens, HB4a, 96 h) [nM]",IC50 (HB4a ras cells; [5]) [nM],IC50 (HB4a erbB-2 cells; [5]) [nM],IC50 (HB4a ras cells; [4]) [nM],IC50 (HB4a erbB-2 cells; [4]) [nM]
"CN(C)c1cc2c(Nc3ccc4c(cnn4Cc4ccccc4)c3)ncnc2cn1 [Example 2, N 4-(1-Benzyl-1H-indazol-5-yl)-N6,N6-dimethyl-pyrido[3,4-d]pyrimidine-4.6-diamine]",380,300,19,140,20,240,–,–,–,–,–,–,–,17000,110,–,–,–,–
c1ccc(Cn2ncc3cc(Nc4ncnc5cnc(N6CCCCC6)cc45)ccc32)cc1 [Example 25],–,–,60,–,570,–,–,–,–,–,380,270,940,–,–,–,–,> 50000,480
"CN1CCN(c2cc3c(Nc4ccc5c(cnn5Cc5ccccc5)c4)ncnc3cn2)CC1 [Example 32, (1-Benzyl-1H-indazol-5-yl)-(6-(4-methyl-piperazin-1-yl)-pyrido[3,4-d]pyrimidin-4-yl)-amine]",–,–,55,–,140,–,8200,1000,4200,600,–,–,–,–,–,8800,100,–,–
"CS(=O)(=O)CCNCc1ccc(-c2cc3c(Nc4ccc5c(cnn5Cc5ccccc5)c4)ncnc3cn2)o1 [Example 34, (1-Benzyl-1H-indazol-5-yl)-(6-(5-((2-methanesuphonyl-ethylamino)-methyl)-furan-2-yl)-pyrido-[3,4-d]pyrimidin-4-yl)-amine Hydrochloride]",–,–,15,–,230,–,1300,2,190,190,–,–,–,–,–,17000,70,–,–
"CNc1cc2c(Nc3ccc4c(cnn4Cc4ccccc4)c3)ncnc2cn1 [Example 37, N4-(1-Benzyl-1H-indazol-5-yl)-N6-methyl-pyrido[3,4-d]pyrimidine-4,6diamine]",–,–,65,–,180,–,3700,1100,2000,2200,30,–,–,–,–,17000,520,–,–

# These reach a lower IC50 [1]. Values come first.
IC50 (Calu3 cells) [nM],IC50 (HN5 cells) [nM],IC50 [1] [nM],"IC50 (BT474 cells; Homo sapiens, BT-474, 96 h) [nM]",IC50 [2] [nM],"IC50 (N87 cells; Homo sapiens, 96 h) [nM]",IC50 (Calu3 cells; [4]) [nM],IC50 (BT474 cells; [6]) [nM],IC50 (HN5 cells; [4]) [nM],IC50 (N87 cells; [7]) [nM],IC50 [3] [nM],IC50 (BT474 cells; [4]) [nM],IC50 (N87 cells; [4]) [nM],Compound,"IC50 (HB4a ras cells; Homo sapiens, HB4a, 96 h) [nM]","IC50 (HB4a erbB-2 cells; Homo sapiens, HB4a, 96 h) [nM]",IC50 (HB4a ras cells; [5]) [nM],IC50 (HB4a erbB-2 cells; [5]) [nM],IC50 (HB4a ras cells; [4]) [nM],IC50 (HB4a erbB-2 cells; [4]) [nM]
–,–,7,–,21,–,8000,610,–,–,–,–,–,"CN(C)c1cc2c(Nc3ccc4nc(Cc5ccccc5)[nH]c4c3)ncnc2cn1 [Example 7, N4-(2-Benzyl-1H-benzimidazol-5-yl)-N6,N6-dimethyl-pyrido[3,4-d]pyrimidine-4,6-diamine]",–,–,19000,1900,–,–
–,–,6,–,10,–,160,2,130,2,–,–,–,"NC(=O)[C@@H]1CCCN1Cc1ccc(-c2cc3c(Nc4ccc5c(cnn5Cc5ccccc5)c4)ncnc3cn2)o1 [Example 10, (2S)1-(5-(4-(1-Benzyl-1H-indazol-5-ylamino)-6-pydrido[3,4-d]pyrimidin-6-yl)-furan-2-ylmethyl)-pyrrolidine-2-carboxylic Acid Amide Hydrochloride]",–,–,21000,71,–,–
–,–,9,–,55,–,1200,1400,1400,370,15,–,–,"Cn1cncc1-c1cc2c(Nc3ccc4c(cnn4Cc4ccccc4)c3)ncnc2cn1 [Example 11, (1-Benzyl-1H-indazol-5-yl)-(6-(3-methyl-3H-imidazol-4-yl)-pyrido[3,4-d]pyrimidin-4-yl)-amine]",–,–,3800,1400,–,–
–,–,9,–,96,–,180,1,81,120,–,–,–,"CN(C)c1cc2c(Nc3ccc4c(cnn4Cc4cccc(F)c4)c3)ncnc2cn1 [Example 16, N4-(1-(3-Fluoro-benzyl)-1H-indazol-5-yl)-N6,N6-dimethyl-pyrido[3,4-d]pyrimidine-4.6-diamine Hydrochloride]",–,–,11000,44,–,–
–,–,2,–,5500,–,–,11000,–,10000,2,–,–,"Cc1nnc(-c2cc3c(Nc4ccc5c(cnn5Cc5ccccc5)c4)ncnc3cn2)o1 [Example 29, (1-Benzyl-1H-indazol-5-yl)-(6-(5-methyl-1,3,4-oxadiazol-2-yl)-pyrido[3,4-d]pyrimidin-4-yl)-amine Hydrochloride]",–,–,29000,5200,–,–
